Data published in US7326707B2, “Bicyclic melanocortin-specific compounds” (Palatin Technologies Incorporated, priority 2001, dated 2008).

What was measured:
[1] = target: T1, B-16 mouse melanoma cells (containing MC1-R) (Mus musculus, UniProt Q01727); assay: Competitive inhibition binding assay, 125I-NDP-α-MSH, MC1-R; conditions: for Inhibition at 1 μM MC1-R: 1 μM compound, inhibition of 125I-NDP-α-MSH binding, mean of triplicates, results less than 0% reported as 0%
T1 construct: B-16 mouse melanoma cells (containing MC1-R); endogenous in cells; host or cells: B-16 mouse melanoma cells
Method: (§1) Incubation was for 90 minutes at room temperature, after which the assay mixture was filtered and the membranes washed three times with ice cold buffer. The filter was dried and counted in a gamma counter for remaining radioactivity bound to the membranes. […] Each assay was conducted in triplicate and the actual mean values are described.

hMC3-R = target: T2, hMC3-R (Homo sapiens, UniProt P41968); assay: Competitive inhibition binding assay, 125I-NDP-α-MSH, MC3-R; conditions: for Inhibition at 1 μM MC3-R: 1 μM compound, inhibition of 125I-NDP-α-MSH binding, mean of triplicates, results less than 0% reported as 0%
T2 construct: expressed in transfected cells
Method: as §1

hMC4-R = target: T3, hMC4-R (Homo sapiens, UniProt P32245); assay: Competitive inhibition binding assay, 125I-NDP-α-MSH, MC4-R; conditions: for Inhibition at 1 μM MC4-R: 1 μM compound, inhibition of 125I-NDP-α-MSH binding, mean of triplicates, results less than 0% reported as 0%
T3 construct: expressed in transfected cells
Method: as §1

hMC5-R = target: T4, hMC5-R (Homo sapiens, UniProt P33032); assay: Competitive inhibition binding assay, 125I-NDP-α-MSH, MC5-R; conditions: for Inhibition at 1 μM MC5-R: 1 μM compound, inhibition of 125I-NDP-α-MSH binding, mean of triplicates, results less than 0% reported as 0%
T4 construct: expressed in transfected cells
Method: as §1

[2] = target: T5, MC1-R (B-16 mouse melanoma cells) (Mus musculus, UniProt Q01727); assay: Ki determination by the method of Example 4, MC1-R; type: cell-based
T5 construct: B-16 mouse melanoma cells (containing MC1-R); endogenous in cells; host or cells: B-16 mouse melanoma cells

[3] = target: T6, MC3-R (HEK-293 cells expressing MC3-R) (Homo sapiens, UniProt P41968); assay: Ki determination by the method of Example 4, MC3-R; type: cell-based
T6 construct: expressed in transfected cells; host or cells: HEK-293

[4] = target: T7, MC4-R (HEK-293 cells expressing MC4-R) (Homo sapiens, UniProt P32245); assay: Ki determination by the method of Example 4, MC4-R; type: cell-based
T7 construct: expressed in transfected cells; host or cells: HEK-293
Method: (§2) The Ki (nM) of certain compounds of the invention were determined. Functional evaluation of compounds at melanocortin receptors was performed by measuring the accumulation of intracellular cAMP in HEK-293 cells expressing MC3-R, MC4-R or MC5-R, and in B-16 mouse melanoma cells (containing MC1-R). Cells, suspended in Earle's Balanced Salt Solution containing 10 mM HEPES, pH 7.5, 5 mM MgCl2, 1 mM glutamine, 0.1% albumin and 0.6 mM 3-isobutyl-1-methyl-xanthine, a phosphodiesterase inhibitor, were plated in 96 well plates at a density of 0.5×10^5 cells per well. Cells were incubated with the test compounds in the presence or absence of α-MSH for 1 hour at 37° C. cAMP levels were measured by EIA (Amersham) in the cell lysates. Data analysis and EC50 values were determined using nonlinear regression analysis with Prism Graph-Pad software.

[5] = target: T8, MC5-R (HEK-293 cells expressing MC5-R) (Homo sapiens, UniProt P33032); assay: Ki determination by the method of Example 4, MC5-R; type: cell-based
T8 construct: expressed in transfected cells; host or cells: HEK-293

[6] = target: T7, MC4-R (HEK-293 cells expressing MC4-R); assay: cAMP assay for agonist/antagonist status, MC4-R; type: cell-based; conditions: cAMP assay as in Example 5
Method: as §2
(§3) The agonist/antagonist status with respect to MC1-R, MC4-R and MC5-R of certain compounds of the invention was determined. Antagonistic activity was determined by measuring the inhibition of α-MSH-induced cAMP levels following exposure to the compounds as in Example 4.

[7] = target: T8, MC5-R (HEK-293 cells expressing MC5-R); assay: cAMP assay for agonist/antagonist status, MC5-R; type: cell-based; conditions: cAMP assay as in Example 5
Method: as §2, §3

[8] = target: T5, MC1-R (B-16 mouse melanoma cells); assay: cAMP assay for agonist/antagonist status, MC1-R; type: cell-based; conditions: cAMP assay as in Example 5
Method: as §2, §3

Male Sprague-Dawley rats = assay: ICV food intake and body weight change; type: in vivo, rat; conditions: 1 nmol dose
Method: Change in food intake and body weight was evaluated for selected compounds. Male Sprague-Dawley rats weighing ˜300 g at the beginning of the experiment were kept on a 12 hour on/off light cycle. Lights out was adjusted to 12:00 p.m. to allow for dosing just prior to the start of their dark period. Rats (8-12/group) were fed powdered chow and water ad libitum. For 1 week before treatment, 24-hour food intake and body weight change was recorded to assess a baseline for the group during vehicle treatment. The rats were dosed ICV with vehicle or selected compounds (1-3 nmol). The changes in body weight and food intake for the 24 hour period after dosing were determined. The changes in body weight and food intake for the 48 hour period, and in same cases for 72 hours as well, after dosing were also measured to determined reversal of changes in body weight and food intake effect back to baseline.

T3 sequence (P32245 whole entry): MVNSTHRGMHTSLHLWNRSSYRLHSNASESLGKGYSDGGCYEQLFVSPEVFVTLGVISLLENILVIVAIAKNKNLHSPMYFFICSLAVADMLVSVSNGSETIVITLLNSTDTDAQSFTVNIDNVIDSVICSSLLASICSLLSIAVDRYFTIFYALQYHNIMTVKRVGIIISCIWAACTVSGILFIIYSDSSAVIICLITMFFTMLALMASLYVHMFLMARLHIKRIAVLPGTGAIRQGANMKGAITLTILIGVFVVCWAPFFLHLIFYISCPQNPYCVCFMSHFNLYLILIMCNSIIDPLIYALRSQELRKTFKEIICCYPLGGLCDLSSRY
T7 sequence (P32245 whole entry): as above
T4 sequence (P33032 whole entry): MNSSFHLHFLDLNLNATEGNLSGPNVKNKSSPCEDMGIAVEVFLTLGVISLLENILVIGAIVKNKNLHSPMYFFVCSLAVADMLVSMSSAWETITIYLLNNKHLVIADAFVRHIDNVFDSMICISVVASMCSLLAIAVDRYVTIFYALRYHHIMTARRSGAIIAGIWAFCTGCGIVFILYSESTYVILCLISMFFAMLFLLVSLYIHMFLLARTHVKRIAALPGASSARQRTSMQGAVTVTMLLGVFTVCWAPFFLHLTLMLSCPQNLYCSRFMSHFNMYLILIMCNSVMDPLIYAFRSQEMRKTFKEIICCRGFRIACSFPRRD
T8 sequence (P33032 whole entry): as above
T6 sequence (P41968 whole entry): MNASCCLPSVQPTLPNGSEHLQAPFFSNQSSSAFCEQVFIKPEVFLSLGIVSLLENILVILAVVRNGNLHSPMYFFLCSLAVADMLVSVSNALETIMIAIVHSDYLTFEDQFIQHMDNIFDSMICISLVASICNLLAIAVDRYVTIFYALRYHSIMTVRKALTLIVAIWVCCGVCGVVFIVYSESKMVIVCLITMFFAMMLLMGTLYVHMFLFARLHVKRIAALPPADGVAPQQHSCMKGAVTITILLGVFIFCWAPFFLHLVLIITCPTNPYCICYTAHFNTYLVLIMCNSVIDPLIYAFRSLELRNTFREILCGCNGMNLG
T2 sequence (P41968 whole entry): as above
T5 sequence (Q01727 whole entry): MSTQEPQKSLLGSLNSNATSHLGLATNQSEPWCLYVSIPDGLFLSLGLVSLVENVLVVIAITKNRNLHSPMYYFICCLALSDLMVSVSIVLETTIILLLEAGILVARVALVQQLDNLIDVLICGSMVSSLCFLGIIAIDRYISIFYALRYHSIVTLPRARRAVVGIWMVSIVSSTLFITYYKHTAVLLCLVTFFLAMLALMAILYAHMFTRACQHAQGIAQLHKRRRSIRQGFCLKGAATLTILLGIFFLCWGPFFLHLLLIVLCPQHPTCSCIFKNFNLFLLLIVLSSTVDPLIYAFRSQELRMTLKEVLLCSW
T1 sequence (Q01727 whole entry): as above

SMILES	Inhibition at 1 μM MC1-R [1] [%]	Inhibition at 1 μM MC3-R (hMC3-R) [%]	Inhibition at 1 μM MC4-R (hMC4-R) [%]	Inhibition at 1 μM MC5-R (hMC5-R) [%]	inhibition at 1 µM [1] [%]	inhibition at 1 µM (hMC3-R) [%]	inhibition at 1 µM (hMC4-R) [%]	inhibition at 1 µM (hMC5-R) [%]	Ki [2] [nM]	Ki [3] [nM]	Ki [4] [nM]	Ki [5] [nM]	agonist/antagonist status as to MC4-R [6]	agonist/antagonist status as to MC5-R [7]	agonist/antagonist status as to MC1-R [8]	24 hour change in food intake (Male Sprague-Dawley rats) [g]	change in weight (Male Sprague-Dawley rats; 24 hour) [g]
[2H]N[C@@H](Cc1cnc[nH]1)C(=O)N[C@@H](Cc1ccccc1)C(=O)N1C[C@H](OCc2ccccc2)C[C@H]1C(=O)NCCCCCN [Example 26]	34	0	47	14													
N=C(N)NCCCC1C(=O)N2C(COc3ccc4ccccc4c3)CCC2N1CC(N)Cc1ccc(Cl)cc1Cl (centres unmarked) [Compound O]					2	28	91	49	848	505	29	689					
[2H]N[C@@H](Cc1cnc[nH]1)C(=O)N[C@@H](Cc1ccccc1)C(=O)N1C2CC[C@H](COc3ccc4ccccc4c3)N2C(=O)[C@@H]1CCCCN (some centres unmarked) [Example 42]						0	36	0									
N=C(N)NCCCC1C(=O)N2C(COc3ccc4ccccc4c3)CCC2N1C(=O)C(Cc1ccccc1Cl)NC(=O)C1Cc2ccccc2CN1 (centres unmarked) [Example 29]					77	42	98	87	81	756	9	301					
[2H]N[C@@H](Cc1cnc[nH]1)C(=O)N[C@@H](Cc1ccccc1)C(=O)N1C[C@H](OCc2ccccc2)C[C@H]1C(=O)NCCCCCCN [Example 27]	39	0	12	17													
NCCCCC1C(=O)N2C(COc3ccc4ccccc4c3)CCC2N1C(=O)C(Cc1ccc(Cl)cc1)NC(=O)C1Cc2ccccc2CN1 (centres unmarked) [Example 11]					95	24	94	73	10	787	24	398					
N=C(N)NCCCC1C(=O)N2C(COc3ccc4ccccc4c3)CCC2N1C(=O)C(Cc1ccccc1Cl)NC(=O)C(N)COCc1ccccc1 (centres unmarked) [Example 30]					57	29	94	94	121	733	41	151					
N=C(N)NCCCC1C(=O)N2C(Cc3ccc4ccccc4c3)CCC2N1C(=O)C(N)Cc1ccc(Cl)cc1Cl (centres unmarked) [Compound G]					76	63	93	46	63	121	19	1050	agonist	agonist			
N=C(N)NCCCC1C(=O)N2C(COc3ccc4ccccc4c3)CCC2N1C(=O)C(N)Cc1ccc(Cl)cc1Cl (centres unmarked) [Compound B]					54	75	98	69	144	132	11	499	agonist	agonist	agonist		
[2H]N[C@@H](Cc1ccccc1)C(=O)N1C2CC[C@H](COc3ccc4ccccc4c3)N2C(=O)[C@@H]1CCCCN (some centres unmarked) [Example 38]					46	13	0	1									
N=C(N)NCCCC1C(=O)N2C(COc3ccc4ccccc4c3)CCC2N1C(=O)C(Cc1ccc(Cl)cc1Cl)NC(=O)C1CCC(c2ccccc2)N1 (centres unmarked) [Example 46]									1040	312						-9.52	-10.64
[2H]N[C@@H](Cc1ccccc1)C(=O)N1C2CC[C@H](COc3ccccc3)N2C(=O)[C@@H]1CCCCN (some centres unmarked) [Example 36]					1	4	0	0									
CCCCCCC(=O)NC(COCc1ccccc1)C(=O)NC(Cc1ccc(Cl)cc1)C(=O)N1C(CCCCN)C(=O)N2C(COc3ccc4ccccc4c3)CCC21 (centres unmarked) [Example 12]					98	75	98	95	13	181	22	116					
N=C(N)NCCCC1C(=O)N2C(COc3ccc4ccccc4c3)CCC2N1C(=O)C(Cc1ccccc1Cl)NC(=O)C1CC(OCc2ccccc2)CN1 (centres unmarked) [Example 31]													agonist		agonist		
